Source: patent US4680284A, “Modified phenylalanine peptidylaminodiols” (Abbott Laboratories, priority 1986, dated 1987)

Target: T1, human renal renin (Homo sapiens, UniProt P00797)
T1 construct: human renal renin, free from acid proteolytic activity; from tissue
T1 sequence (P00797 67-406): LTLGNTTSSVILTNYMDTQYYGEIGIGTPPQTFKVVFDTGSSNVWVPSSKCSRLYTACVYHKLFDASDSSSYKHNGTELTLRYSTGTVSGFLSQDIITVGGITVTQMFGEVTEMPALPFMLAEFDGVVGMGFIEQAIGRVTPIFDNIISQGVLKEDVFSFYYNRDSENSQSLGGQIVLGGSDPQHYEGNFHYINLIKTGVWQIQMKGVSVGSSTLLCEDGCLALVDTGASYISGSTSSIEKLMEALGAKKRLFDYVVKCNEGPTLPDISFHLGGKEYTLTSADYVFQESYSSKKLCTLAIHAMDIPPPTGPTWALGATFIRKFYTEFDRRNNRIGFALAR
Assay: In vitro inhibition of human renal renin (angiotensin I formation measured by radioimmunoassay)
Assay type: biochemical
Conditions: human renal renin with human renin substrate (angiotensinogen), 37° C., pH 6.0

`CCOC(=O)NC1(C(=O)N[C@@H](Cc2c[nH]cn2)C(=O)N[C@@H](CC2CCCCC2)[C@@H](O)[C@@H](O)CC(C)C)Cc2ccccc2C1` [Example 5, EtOC-AICA-His Amide of 2(S)-Amino-1-cyclohexyl-3(R),4(S)-dihydroxy-6-methylheptane] was tested, and the IC50 was 15 nM.

With `CC(C)C[C@H](O)[C@H](O)[C@H](CC1CCCCC1)NC(=O)[C@H](Cc1c[nH]cn1)NC(=O)C1(N)Cc2ccccc2C1` [Example 7, AICA-His Amide of 2(S)-Amino-1-cyclohexyl-3(R),4(S)-dihydroxy-6-methylheptane] the IC50 was 300 nM.

`CC(=O)N[C@@](C)(Cc1ccccc1)C(=O)N[C@@H](Cc1c[nH]cn1)C(=O)N[C@@H](CC1CCCCC1)[C@@H](O)[C@@H](O)CC(C)C` [Example 19, Acetyl-AMPA-His Amide of 2(S)-Amino-1-cyclohexyl-3(R),4(S)-dihydroxy-6-methylheptane] was tested, and the IC50 was 9 nM.

`CC(C)C[C@H](O)[C@H](O)[C@H](CC1CCCCC1)NC(=O)[C@H](Cc1c[nH]cn1)NC(=O)C(N)(Cc1ccccc1)Cc1ccccc1` [Example 21, ADBA-His Amide of 2(S)-Amino-1-cyclohexyl-3(R),4(S)-dihydroxy-6-methylheptane] showed an IC50 of 25 nM.

Compound `CC(C)C[C@H](O)[C@H](O)[C@H](CC1CCCCC1)NC(=O)[C@H](Cc1c[nH]cn1)NC(=O)[C@@](C)(N)Cc1ccccc1` [Example 17, AMPA-His Amide of 2(S)-Amino-1-cyclohexyl-3(R),4(S)-dihydroxy-6-methylheptane] has an IC50 of 10 nM.

`CC(C)C[C@H](O)[C@H](O)[C@H](CC1CCCCC1)NC(=O)[C@H](Cc1c[nH]cn1)NC(=O)C1Cc2ccccc2C(=O)N1` (stereo partly drawn) [Example 15, OTIC-His Amide of 2(S)-Amino-1-cyclohexyl-3(R),4(S)-dihydroxy-6-methylheptane] was tested, and the IC50 was 100 nM.

Compound `CCOC(=O)NC1(C(=O)N[C@@H](Cc2c[nH]cn2)C(=O)N[C@@H](CC2CCCCC2)[C@@H](O)[C@@H](O)CC(C)C)CCc2ccccc2C1` (stereo partly drawn) [Example 10, EtOC-(R,S)-ATCA-His Amide of 2(S)-Amino-1-cyclohexyl-3(R),4(S)-dihydroxy-6-methylheptane] has an IC50 of 5 nM.

Compound `CCOC(=O)N1Cc2ccccc2CC1C(=O)N[C@@H](Cc1c[nH]cn1)C(=O)N[C@@H](CC1CCCCC1)[C@@H](O)[C@@H](O)CC(C)C` (stereo partly drawn) [Example 13, EtOC-TIC-His Amide of 2(S)-Amino-1-cyclohexyl-3(R),4(S)-dihydroxy-6-methylheptane] has an IC50 of 10 nM.
